Laboratory results taken from patent US8735609B2, “Bryostatin analogues, synthetic methods and uses” (The Board of Trustees of the Leland Stanford Junior …, priority 2007, dated 2014).

Columns and labels:
EKVX = assay: NCI human cancer cell line growth inhibition: EKVX (NSC Lung); format: cell-based; details: Homo sapiens
U251 = assay: NCI human cancer cell line growth inhibition: U251 (CNS); format: cell-based; details: Homo sapiens, U-251
SN12C = assay: NCI human cancer cell line growth inhibition: SN12C (Renal); format: cell-based; details: Homo sapiens
SR = assay: NCI human cancer cell line growth inhibition: SR (Leukemia); format: cell-based; details: Homo sapiens
NCI-H460 = format: cell-based, human; details: Homo sapiens; NCI-H460, NSC Lung; read-out: Growth inhibition (GI50)
MCF7 = assay: NCI human cancer cell line growth inhibition: MCF7 (Breast); format: cell-based; details: Homo sapiens
K-562 = assay: NCI human cancer cell line growth inhibition: K-562 (Leukemia); format: cell-based; details: Homo sapiens, K562
HCC-2998 = assay: NCI human cancer cell line growth inhibition: HCC-2998 (Colon); format: cell-based; details: Homo sapiens
MDA-MB-231/ATCC = assay: NCI human cancer cell line growth inhibition: MDA-MB-231/ATCC (Breast); format: cell-based; details: Homo sapiens
DU-145 = assay: NCI human cancer cell line growth inhibition: DU-145 (Prostate); format: cell-based; details: Homo sapiens
HCT-15 = assay: NCI human cancer cell line growth inhibition: HCT-15 (Colon); format: cell-based; details: Homo sapiens
NCI/ADR-RES = format: cell-based, human; details: Homo sapiens, Breast, read-out: Growth inhibition (GI50) (converted)
HT29 = assay: NCI human cancer cell line growth inhibition: HT29 (Colon); format: cell-based; details: Homo sapiens, HT-29
SK-MEL-2 = assay: NCI human cancer cell line growth inhibition: SK-MEL-2 (Melanoma); format: cell-based; details: Homo sapiens
TK-10 = assay: NCI human cancer cell line growth inhibition: TK-10 (Renal); format: cell-based; details: Homo sapiens
HOP-92 = assay: NCI human cancer cell line growth inhibition: HOP-92 (NSC Lung); format: cell-based; details: Homo sapiens
HCT-116 = assay: NCI human cancer cell line growth inhibition: HCT-116 (Colon); format: cell-based; details: Homo sapiens
UACC-62 = assay: NCI human cancer cell line growth inhibition: UACC-62 (Melanoma); format: cell-based; details: Homo sapiens
SF-268 = assay: NCI human cancer cell line growth inhibition: SF-268 (CNS); format: cell-based; details: Homo sapiens
OVCAR-8 = assay: NCI human cancer cell line growth inhibition: OVCAR-8 (Ovarian); format: cell-based; details: Homo sapiens
MOLT-4 = assay: NCI human cancer cell line growth inhibition: MOLT-4 (Leukemia); format: cell-based; details: Homo sapiens
A549/ATCC = assay: NCI human cancer cell line growth inhibition: A549/ATCC (NSC Lung); format: cell-based; details: Homo sapiens
UACC-257 = assay: NCI human cancer cell line growth inhibition: UACC-257 (Melanoma); format: cell-based; details: Homo sapiens
MDA-MB-435 = assay: NCI human cancer cell line growth inhibition: MDA-MB-435 (Breast); format: cell-based; details: Homo sapiens
BT-549 = assay: NCI human cancer cell line growth inhibition: BT-549 (Breast); format: cell-based; details: Homo sapiens
P388 cell line = assay: P388 murine lymphocytic leukemia cell assay; format: cell-based
Procedure: Cells from a P388 cell line (CellGate, Inc., Sunnyvale, Calif.) are grown in RPMI 1640 cell medium containing fetal calf serum (10%), L-glutamine, penicillin, streptomycin and are split twice weekly. All compounds are first diluted with DMSO. Later serial dilutions are done with a phosphate buffer solution (HYQ DPBS modified phosphate buffered saline). All dilutions are done in glass vials and the final DMSO concentration is always below 0.5% by volume. Final two-fold dilutions are done in a 96 well plate using cell media so that each well contains 50 μL. All compounds are assayed in quadruplicate over 12 concentrations. Cell concentration is measured using a hemacytometer and the final cell concentration is adjusted to 1×10^4 cells/mL with cell medium. The resulting solution of cells (50 μL) is then added to each well and the plates are incubated for 5 days in a 37° C., 5% CO2, humidified incubator (Sanyo CO2 incubator). MTT solution (3-[4,5-dimethylthiazol-2-yl]-2,5-diphenyltetrazolium bromide, 10 μL) is then added to each well and the plates are re-incubated under identical conditions for 2 h. To each well is then added acidified isopropanol (150 μL of i-PrOH solution containing 0.05 N HCl) and mixed thoroughly. The plates are then scanned at 595 nm and the absorbances are read (Wallac Victor 1420 Multilabel Counter). The resulting data is then analyzed to determine an ED50 value using the Prism software package (GraphPad).

HS 578T = assay: NCI human cancer cell line growth inhibition: HS 578T (Breast); format: cell-based; details: Homo sapiens
ACHN = assay: NCI human cancer cell line growth inhibition: ACHN (Renal); format: cell-based; details: Homo sapiens
OVCAR-5 = assay: NCI human cancer cell line growth inhibition: OVCAR-5 (Ovarian); format: cell-based; details: Homo sapiens
SF-295 = assay: NCI human cancer cell line growth inhibition: SF-295 (CNS); format: cell-based; details: Homo sapiens
CCRF-CEM = assay: NCI human cancer cell line growth inhibition: CCRF-CEM (Leukemia); format: cell-based; details: Homo sapiens
OVCAR-3 = assay: NCI human cancer cell line growth inhibition: OVCAR-3 (Ovarian); format: cell-based; details: Homo sapiens
KM12 = assay: NCI human cancer cell line growth inhibition: KM12 (Colon); format: cell-based; details: Homo sapiens
LOX IMVI = assay: NCI human cancer cell line growth inhibition: LOX IMVI (Melanoma); format: cell-based; details: Homo sapiens
T-47D = assay: NCI human cancer cell line growth inhibition: T-47D (Breast); format: cell-based; details: Homo sapiens, T47D
SNB-75 = assay: NCI human cancer cell line growth inhibition: SNB-75 (CNS); format: cell-based; details: Homo sapiens
[1] = test system: NCI human cancer cell-lines; assay: In vitro inhibition of growth in NCI human cancer cell lines (panel); format: cell-based
HOP-62 = assay: NCI human cancer cell line growth inhibition: HOP-62 (NSC Lung); format: cell-based; details: Homo sapiens
COLO 205 = assay: NCI human cancer cell line growth inhibition: COLO 205 (Colon); format: cell-based; details: Homo sapiens
OVCAR-4 = assay: NCI human cancer cell line growth inhibition: OVCAR-4 (Ovarian); format: cell-based; details: Homo sapiens
A498 = assay: NCI human cancer cell line growth inhibition: A498 (Renal); format: cell-based; details: Homo sapiens
SK-OV-3 = assay: NCI human cancer cell line growth inhibition: SK-OV-3 (Ovarian); format: cell-based; details: Homo sapiens
MI4 = assay: NCI human cancer cell line growth inhibition: MI4 (Melanoma); format: cell-based; details: Homo sapiens
PC-3 = assay: NCI human cancer cell line growth inhibition: PC-3 (Prostate); format: cell-based; details: Homo sapiens

For CCCCCCCC(=O)O[C@H]1/C(=C/C(=O)OC)C[C@H]2C[C@H](CO)OC(=O)C[C@H](O)C[C@@H]3CCC[C@H](C[C@@H]4CCO[C@H](/C=C/C(C)(C)[C@]1(O)O2)O4)O3 [Formula IIa (702.1)], the GI50 (EKVX) was 2.63 µM, the GI50 (U251) was 3.98 µM and the GI50 (SN12C) was 2.57 µM. The GI50 (SR) was 7.94 µM, the GI50 (NCI-H460) was < 0.01 µM and the GI50 (MCF7) was 3.98 µM. The GI50 (K-562) was 0.0316 µM, the GI50 (HCC-2998) was 0.0288 µM and the GI50 (MDA-MB-231/ATCC) was 2.04 µM. The GI50 (DU-145) was 9.55 µM, the GI50 (HCT-15) was 17.4 µM and the GI50 (NCI/ADR-RES) was 18.2 µM. For the same compound, the GI50 (HT29) was 2.82 µM, the GI50 (SK-MEL-2) was 9.55 µM and the GI50 (TK-10) was 0.0933 µM. For the same compound, the GI50 (HOP-92) was 21.4 µM, the GI50 (HCT-116) was 4.79 µM and the GI50 (UACC-62) was 7.76 µM. For the same compound, the GI50 (SF-268) was 10.7 µM, the GI50 (OVCAR-8) was 17 µM and the GI50 (MOLT-4) was < 0.01 µM. The GI50 (A549/ATCC) was 0.24 µM, the GI50 (UACC-257) was 7.41 µM and the GI50 (MDA-MB-435) was 0.0219 µM. For the same compound, the GI50 (BT-549) was 19.5 µM, the “activity in P388 assay compared with the corresponding C26 methyl-containing analogue” value (P388 cell line) was “significantly higher activity” and the EC50 (P388 cell line; Mus musculus, P388, 120 h, read-out: P388 Assay ED50) was 0.017 µM. The GI50 (HS 578T) was 6.61 µM, the GI50 (ACHN) was 1.15 µM and the GI50 (OVCAR-5) was 5.25 µM. It also gave a GI50 (SF-295) of 0.891 µM, a GI50 (CCRF-CEM) of 1.55 µM and a GI50 (OVCAR-3) of 14.8 µM. It also gave a GI50 (KM12) of 4.57 µM, a GI50 (LOX IMVI) of 3.39 µM and a GI50 (T-47D) of 9.55 µM. The GI50 (SNB-75) was 10.7 µM, the “more active than bryostatin-1” value ([1]; K-562, MOLT-4, NCI-H460, HCC-2998, TK-10, MDA-MB-435) was “more than 2 orders of magnitude” and the “potency compared with bryostatin-1, on average” value ([1]; all cell groups tested) was “at least as potent, on average, as bryostatin-1”. It also gave a GI50 (HOP-62) of 16.2 µM, a GI50 (COLO 205) of 0.0832 µM and a GI50 (OVCAR-4) of 7.08 µM. It also gave a GI50 (A498) of 0.417 µM, a GI50 (SK-OV-3) of 50.1 µM and a GI50 (MI4) of 5.5 µM. It also gave a GI50 (PC-3) of 2.51 µM.
